From patent publication US10370366B2 (Flatley Discovery Lab, LLC, priority 2013, dated 2019) come the findings set out here.

A word on the EC50: it is the concentration that produces a half-maximal response.

SMILES strings stand for the structures.

For the assay, the target named is T1, human F508del CFTR (Homo sapiens, UniProt P13569, DEL508-508).
T1 construct: expressed in transfected cells; host or cells: Fisher Rat Thyroid (FRT) cells
The experiment in a line: CFTR-YFP High Throughput Assay. The class given is cell-based. The note with it: FRT cells expressing human F508del CFTR and YFP; for Emax: EMax normalized to the positive control, read-out: % Efficacy. As to the method: Assays for Detecting and Measuring the Effect of Compounds on F508del-CFTR Channels CFTR-YFP High Throughput Assay-CFTR Corrector Protocol:
This protocol is designed to selectively screen small molecule compounds for F508del CFTR corrector activities in the HTS YFP (yellow fluorescent protein) flux assay. In this protocol, the cells are incubated with testing compounds for 24 hours, washed with PBS, stimulated with forskolin and a standard potentiator, and fluorescence in each plate well is measured kinetically read on a 384-well HTS plate reader, such as the Hamamatsu FDSS-6000.
YFP fluorescence intensity values are acquired at high speed before and after iodide buffer is injected to the assay cells. Iodide enters the cells via active CFTR channels in the plasma membrane, and quenches the YFP fluorescence. The rate of fluorescence quenching is proportionate to the total CFTR activity in the cell membrane. F508del CFTR correctors increase the number of CFTR molecules in the testing cell plasma membrane, and thereby accelerate YFP quenching.
This method was initially developed for bench top plate readers (Galietta et al., 2001), and was adapted to the HTS format (Sui et al. Assay Drug Dev. Technol. 2010).
Fisher Rat Thyroid (FRT) cells stably expressing both human F508del CFTR and a halide-sensitive yellow fluorescent protein (YFP-H148Q/I152L 25,22) (Galietta et al. Am. J. Physiol Cell Physiol 281(5), C1734, 2001) were cultured on plastic surface in Coon's modified Ham's F12 medium supplemented with FBS 10%, L-glutamine 2 mM, penicillin 100 U/ml, and streptomycin 100 µg/ml. G418 (0.75-1.0 mg/ml) and zeocin (3.2 ug/ml) were used for selection of FRT cells expressing F508del CFTR and YFP. For primary screening, FRT cells were plated into 384-well black wall, transparent bottom microtiter plates (Costar; Corning Inc.) at a cell density of 20,000-40,000 per well. Test compound was applied to the cells at varying concentrations ranging from 2 nM-40 μM in either a 2-fold or 3-fold dilution series. Cells were incubated in a cell culture incubator at 37° C. with 5% CO2 for 24-26 h. Assay plates were washed with DPBS media (Thermo, cat# SH30028.02) to remove unbound cells and compound. Stimulation media (25 μL) containing 20 μM Forskolin & 30 μM P3 [6-(Ethyl-phenyl-sulfonyl)-4-oxo-1,4-dihydro-quinoline-3-carboxylic acid 2-methoxy-benzylamide] in Hams F-12 coon's modified media was added to the plate wells and incubated at room temperature for 60-120 min. […] (10 mM HEPES, 1 mM MgCl2, 3 mM KCl, 1 mM CaCl2, 150 mM NaI) was then added and fluorescence quench curves (Excitation 500 nm/Emission 540 nm; exposure 136 ms) were immediately recorded on an FDSS-6000 plate reader (Hamamatsu). Quench rates were derived from least squares fitting of the data as described by Sui et al (2010).
CFTR-YFP High Throughput Assay-CFTR Potentiator Protocol:
This protocol is designed to selectively screen small molecule compounds for F508del CFTR potentiator activities in the HTS YFP flux assay. Such compounds act acutely to stimulate CFTR already expressed on the membrane surface. In this protocol, the cells are incubated at 27° C. for 24 hours to homogeneously boost F508del CFTR expression in the cell membrane (low temperature correction), washed with PBS, treated with test compound, and CFTR activity is stimulated with forskolin for 1-2 hr. Measurement of ion flux is initiated by addition of iodide-containing buffer, and YFP quenching is kinetically recorded using a 384-well HTS plate reader, such as the Hamamatsu FDSS-6000.
YFP fluorescence intensity values are acquired at high speed over a 1 min time course before and after iodide buffer is injected to the assay cells. Iodide enters the cells via active CFTR channels in the plasma membrane, and quenches the YFP fluorescence. The rate of fluorescence quenching is proportionate to total CFTR activity in the cell membrane. […]

T1 sequence (P13569 with tags, fused parts or gaps DEL508-508): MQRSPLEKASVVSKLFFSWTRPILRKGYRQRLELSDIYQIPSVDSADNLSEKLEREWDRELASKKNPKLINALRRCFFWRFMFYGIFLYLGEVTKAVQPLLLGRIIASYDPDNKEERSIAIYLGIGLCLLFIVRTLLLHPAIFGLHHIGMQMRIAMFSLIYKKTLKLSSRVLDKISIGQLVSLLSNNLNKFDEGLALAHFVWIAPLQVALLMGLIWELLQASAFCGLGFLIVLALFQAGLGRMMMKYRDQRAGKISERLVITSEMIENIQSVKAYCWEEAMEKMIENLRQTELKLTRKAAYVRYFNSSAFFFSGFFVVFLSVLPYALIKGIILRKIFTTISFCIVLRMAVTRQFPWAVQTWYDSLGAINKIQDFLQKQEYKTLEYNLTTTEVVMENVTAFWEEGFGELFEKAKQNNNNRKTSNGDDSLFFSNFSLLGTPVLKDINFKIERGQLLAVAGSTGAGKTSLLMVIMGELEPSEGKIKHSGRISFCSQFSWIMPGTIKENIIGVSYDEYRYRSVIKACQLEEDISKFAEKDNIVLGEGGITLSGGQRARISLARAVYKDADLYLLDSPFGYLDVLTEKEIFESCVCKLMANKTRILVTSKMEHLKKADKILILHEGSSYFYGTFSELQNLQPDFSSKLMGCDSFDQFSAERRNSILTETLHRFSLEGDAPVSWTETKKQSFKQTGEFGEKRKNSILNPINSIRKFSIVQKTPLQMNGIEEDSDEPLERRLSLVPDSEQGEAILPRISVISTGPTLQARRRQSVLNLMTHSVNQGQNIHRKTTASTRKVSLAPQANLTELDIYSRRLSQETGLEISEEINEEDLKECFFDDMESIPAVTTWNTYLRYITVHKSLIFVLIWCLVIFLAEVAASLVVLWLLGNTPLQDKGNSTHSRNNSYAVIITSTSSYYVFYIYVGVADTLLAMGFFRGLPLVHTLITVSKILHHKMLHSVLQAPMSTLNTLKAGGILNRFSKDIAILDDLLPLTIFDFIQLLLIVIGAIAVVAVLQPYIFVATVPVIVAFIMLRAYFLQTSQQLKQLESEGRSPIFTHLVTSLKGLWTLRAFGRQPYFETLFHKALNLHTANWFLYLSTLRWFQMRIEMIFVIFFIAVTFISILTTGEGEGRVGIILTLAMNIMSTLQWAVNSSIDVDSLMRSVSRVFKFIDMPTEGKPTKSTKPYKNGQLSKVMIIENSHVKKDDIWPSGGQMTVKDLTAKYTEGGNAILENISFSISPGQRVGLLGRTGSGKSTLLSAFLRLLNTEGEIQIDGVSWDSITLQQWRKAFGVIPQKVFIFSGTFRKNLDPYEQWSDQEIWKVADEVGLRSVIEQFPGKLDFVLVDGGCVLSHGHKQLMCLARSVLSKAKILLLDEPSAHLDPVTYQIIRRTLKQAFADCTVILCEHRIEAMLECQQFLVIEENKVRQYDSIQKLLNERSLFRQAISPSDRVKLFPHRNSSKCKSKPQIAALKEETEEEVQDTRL

Take `CCN(C(=O)c1nn(C)c(=O)c2c1c1ccccc1n2C)c1ccccc1` [Example 207, N-ethyl-3,5-dimethyl-4-oxo-N-phenyl-4,5-dihydro-3H-pyridazino[4,5-b]indole-1-carboxamide]: the Emax lay within 30 to 80% and the EC50 was less than 10 µM.

`CCN(C(=O)c1nn(C[C@@H](O)COC)c(=O)c2c1c1ccccc1n2C)c1ccccc1` [Example 228, (R)-N-ethyl-3-(2-hydroxy-3-methoxypropyl)-5-methyl-4-oxo-N-phenyl-4,5-dihydro-3H-pyridazino[4,5-b]indole-1-carboxamide]: the Emax was 30 to 80% and the 50% effective concentration (EC50) is less than 10 µM. Regarding `CCN(C(=O)Cn1nc(-c2ccc(C(N)=O)cc2)c2ccc(OC)cc2c1=O)c1ccc2nc(C)oc2c1` [Example 84, 4-(3-(2-(ethyl(2-methylbenzo[d]oxazol-6-yl)amino)-2-oxoethyl)-6-methoxy-4-oxo-3,4-dihydrophthalazin-1-yl)benzamide], the Emax lay within 30 to 80%.

In the case of `Cn1c2ccccc2c2c(-c3ccccc3)nn(C3CCCCC3)c(=O)c21` [Example 241, 3-cyclohexyl-5-methyl-1-phenyl-3,5-dihydro-4H-pyridazino[4,5-b]indol-4-one], the Emax fell in the range of 30 to 80% and the EC50 is less than 10 µM. Taken in the same sequence, the figures for `CCN(C(=O)Cn1nc(C(=O)N(C)c2ccccn2)c2ccccc2c1=O)c1ccc2c(c1)OC(F)(F)O2` [Example 127, 3-(2-((2,2-difluorobenzo[d][1,3]dioxol-5-yl)(ethyl)amino)-2-oxoethyl)-N-methyl-4-oxo-N-(pyridin-2-yl)-3,4-dihydrophthalazine-1-carboxamide] were 30 to 80% and less than 10 µM. Taken in the same sequence, the figures for `Cc1ccc(-n2nc(C(=O)N(c3ccccc3)C(C)C)c3c(-c4ccccc4)onc3c2=O)cc1` [Example 248, N-isopropyl-7-oxo-N,3-diphenyl-6-(p-tolyl)-6,7-dihydroisoxazolo[3,4-d]pyridazine-4-carboxamide] were 10 to 30% and less than 10 µM.

Regarding `CCN(C(=O)Cn1nc(-c2ccc(S(N)(=O)=O)cc2)c2ccccc2c1=O)c1ccc2c(c1)OC(F)(F)O2` [Example 18, N-(2,2-difluorobenzo[d][1, 3]dioxol-5-yl)-N-ethyl-2-(1-oxo-4-(4-sulfamoylphenyl)phthalazin-2(1H)-yl)acetamide], the Emax was greater than 80% and the 50% effective concentration (EC50) lay within 10 to 20 µM.

For the compound `CCc1ccc(N(CC)C(=O)Cn2nc(Cc3cccnc3)c3ncccc3c2=O)cc1` [Example 43, N-ethyl-N-(4-ethylphenyl)-2-(5-oxo-8-(pyridin-3-ylmethyl)pyrido[2,3-d]pyridazin-6(5H)-yl)acetamide], the Emax lay in the range of 10 to 30% and the 50% effective concentration (EC50) was greater than 20 µM. Turning to `CCN(C(=O)Cn1ncc2c(c1=O)c1ccccc1n2CCC(=O)OC)c1ccc2c(c1)OC(F)(F)O2` [Example 134, methyl 3-(2-(2-((2,2-difluorobenzo[d][1,3]dioxol-5-yl)(ethyl)amino)-2-oxoethyl)-1-oxo-1H-pyridazino[4,5-b]indol-5(2H)-yl)propanoate], the Emax lay within 30 to 80%. Regarding `COc1ccc2c(-c3ccc(S(N)(=O)=O)cc3)nn(CC(=O)N(C)c3ccc4c(c3)OC(F)(F)O4)c(=O)c2c1` [Example 71, N-(2,2-difluorobenzo[d][1,3]dioxol-5-yl)-2-(7-methoxy-1-oxo-4-(4-sulfamoylphenyl)phthalazin-2(1H)-yl)-N-methylacetamide], the Emax fell in the range of 30 to 80%. Regarding `CCN(C(=O)c1nn(C(C)C)c(=O)c2c1c1ccccc1n2C)c1cc(Cl)ccc1C#N` [Example 205, N-(5-chloro-2-cyanophenyl)-N-ethyl-3-isopropyl-5-methyl-4-oxo-4,5-dihydro-3H-pyridazino[4,5-b]indole-1-carboxamide], the Emax was 30 to 80%. The same measure, in the same setting: with `CCc1ccc(N(CC)C(=O)Cn2nc(Cc3cccnc3)c3ccc(OC)cc3c2=O)cc1` [Example 35, N-ethyl-N-(4-ethylphenyl)-2-(7-methoxy-1-oxo-4-(pyridin-3-ylmethyl)phthalazin-2(1H)-yl)acetamide] the figure was 30 to 80%.
